Laboratory results as given in PubChem BioAssay AID248 (DTP/NCI, 2004).
“And” between values parts separate entries of the source, which are not always exact repeats. Equal entries are not always repeated. Toxic doses and inconclusive results are not listed. Cut-off read from the data, not from the text of the source: active = T/C of 150% or more; inactive = T/C below 125%.

System: L1210 leukemia ip in BDF1 mice, survival T/C
Test: NCI In Vivo Anticancer Drug Screen. Data for tumor model L1210 Leukemia (intraperitoneal) in B6D2F1 (BDF1) mice
Conditions: endpoint: mean survival time, higher = longer survival
Summary of the method: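 Read-out is survival time, reported as the treated-group measurement over the vehicle-control measurement.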

[1] = dose: 12.5 mg/kg/injection, schedule: Q04DX002 (ip), vehicle: Klucel (hydroxypropylcellulose) (HPC)
[2] = dose: 25.0 mg/kg/injection, schedule: Q04DX002 (ip), vehicle: Klucel (hydroxypropylcellulose) (HPC)
[3] = dose: 50.0 mg/kg/injection, schedule: Q04DX002 (ip), vehicle: Klucel (hydroxypropylcellulose) (HPC)
[4] = dose: 100.0 mg/kg/injection, schedule: Q04DX002 (ip), vehicle: Klucel (hydroxypropylcellulose) (HPC)
[5] = dose: 25.0 mg/kg/injection, schedule: Q01DX009 (ip), vehicle: saline
[6] = dose: 50.0 mg/kg/injection, schedule: Q01DX009 (ip), vehicle: saline
[7] = dose: 25.0 mg/kg/injection, schedule: Q04DX003 (ip), vehicle: saline
[8] = dose: 100.0 mg/kg/injection, schedule: Q01DX009 (ip), vehicle: saline with Tween-80
[9] = dose: 100.0 mg/kg/injection, schedule: Q01DX001 (ip), vehicle: carboxymethylcellulose (CMC)
[10] = dose: 200.0 mg/kg/injection, schedule: Q01DX001 (ip), vehicle: carboxymethylcellulose (CMC)
[11] = dose: 400.0 mg/kg/injection, schedule: Q01DX001 (ip), vehicle: carboxymethylcellulose (CMC)
[12] = dose: 100.0 mg/kg/injection, schedule: Q04DX003 (ip), vehicle: saline with Tween-80
[13] = dose: 200.0 mg/kg/injection, schedule: Q01DX009 (ip), vehicle: saline with Tween-80
[14] = dose: 200.0 mg/kg/injection, schedule: Q04DX003 (ip), vehicle: saline with Tween-80
[15] = dose: 400.0 mg/kg/injection, schedule: Q01DX009 (ip), vehicle: saline with Tween-80
[16] = dose: 400.0 mg/kg/injection, schedule: Q04DX003 (ip), vehicle: saline with Tween-80

Measured: T/C

Nc1ccc(Sc2ccc(N)cc2)cc1
inactive: [1] 106 % of control | [2] 116 % of control | [3] 106 % of control | [4] 103 % of control

O=Nc1c(S(=O)(=O)O)cc2cc(S(=O)(=O)O)cc(O)c2c1O.[Cu+2]
inactive: dose: 0.16 mg/kg/injection, schedule: Q01DX009 (ip), vehicle: saline 95 % of control | dose: 0.31 mg/kg/injection, schedule: Q01DX009 (ip), vehicle: saline 103 % of control | dose: 0.63 mg/kg/injection, schedule: Q01DX009 (ip), vehicle: saline 92 % of control | dose: 1.25 mg/kg/injection, schedule: Q04DX003 (ip), vehicle: saline 102 % of control | dose: 2.5 mg/kg/injection, schedule: Q04DX003 (ip), vehicle: saline 102 % of control | dose: 5.0 mg/kg/injection, schedule: Q04DX003 (ip), vehicle: saline 94 % of control

C[N+]1(C)CCC2=CC3C=CC2C1C=C3 (configuration not stated)
inactive: dose: 12.5 mg/kg/injection, schedule: Q01DX009 (ip), vehicle: saline 95 % of control | [5] 93 % of control | [6] 90 % of control

C=CCc1ccc(OCCOCCN(C/C=C(\C)CCC=C(C)C)C/C=C(\C)CCC=C(C)C)c(OC)c1
inactive: [2] 108 % of control | [3] 96 % of control | [4] 99 % of control

NC(=S)NN=C1CCCC1
inactive: dose: 6.25 mg/kg/injection, schedule: Q04DX003 (ip), vehicle: saline 96 % of control | dose: 12.5 mg/kg/injection, schedule: Q04DX003 (ip), vehicle: saline 94 % of control | [7] 94 % of control

O=C1CCCCc2cc(O)c([N+](=O)[O-])cc21
inactive: dose: 50.0 mg/kg/injection, schedule: Q01DX009 (ip), vehicle: saline with Tween-80 101 % of control | [8] 95 % of control

CC1Nc2ccccc2-c2ccccc2C1=O (configuration not stated)
inactive: [9] 107 % of control | [10] 102 % of control | [11] 102 % of control

c1ccc(N/N=C2/CCN3CCCc4cccc2c43)cc1
inactive: dose: 3.0 mg/kg/injection, schedule: Q01DX009 (ip), vehicle: DMSO 98 % of control | dose: 6.0 mg/kg/injection, schedule: Q01DX009 (ip), vehicle: DMSO 96 % of control | dose: 12.0 mg/kg/injection, schedule: Q01DX009 (ip), vehicle: DMSO 95 % of control | dose: 12.5 mg/kg/injection, schedule: Q04DX003 (ip), vehicle: DMSO 101 % of control | dose: 25.0 mg/kg/injection, schedule: Q01DX009 (ip), vehicle: DMSO 89 % of control | dose: 25.0 mg/kg/injection, schedule: Q04DX003 (ip), vehicle: DMSO 100 % of control | dose: 50.0 mg/kg/injection, schedule: Q04DX003 (ip), vehicle: DMSO 104 % of control | dose: 100.0 mg/kg/injection, schedule: Q04DX003 (ip), vehicle: gum acacia 95 % of control

BrC1(Br)C2CC3C(CC21)C1CC2C(CC31)C2(Br)Br (configuration not stated)
inactive: [8] 97 % of control | [12] 94 % of control | [13] 96 % of control | [14] 95 % of control | [15] 105 % of control | [16] 92 % of control

Cc1cc(C)c(C2=C(Br)C(=O)C(c3c(C)cc(C)c(C)c3C)=C(Br)C2=O)c(C)c1C
inactive: dose: 100.0 mg/kg/injection, schedule: Q01DX001 (ip), vehicle: Klucel (hydroxypropylcellulose) (HPC) 98 % of control | dose: 200.0 mg/kg/injection, schedule: Q01DX001 (ip), vehicle: Klucel (hydroxypropylcellulose) (HPC) 103 % of control | dose: 400.0 mg/kg/injection, schedule: Q01DX001 (ip), vehicle: Klucel (hydroxypropylcellulose) (HPC) 98 % of control

C=CC(=O)[O][Pb]([CH2]C)([CH2]C)[CH2]C
inactive: [1] 86 % of control

C/C=C/C=C\COC(=O)C(C)(C)CCC
inactive: [8] 90 % of control | dose: 100.0 mg/kg/injection, schedule: Q04DX002 (ip), vehicle: saline with Tween-80 98 % of control | dose: 100.0 mg/kg/injection, schedule: Q04DX002 (ip), vehicle: saline 96 % of control | [13] 90 % of control | dose: 200.0 mg/kg/injection, schedule: Q04DX002 (ip), vehicle: saline with Tween-80 95 % of control | dose: 200.0 mg/kg/injection, schedule: Q04DX002 (ip), vehicle: saline 103 % of control | [15] 93 % of control | dose: 400.0 mg/kg/injection, schedule: Q04DX002 (ip), vehicle: saline with Tween-80 95 % of control | dose: 800.0 mg/kg/injection, schedule: Q04DX002 (ip), vehicle: saline with Tween-80 95 % of control

O=C(O)C(Br)CCCCC(Br)C(=O)O (configuration not stated)
inactive: dose: 100.0 mg/kg/injection, schedule: Q01DX001 (ip), vehicle: steriod suspending solution 105 % of control | dose: 200.0 mg/kg/injection, schedule: Q01DX001 (ip), vehicle: steriod suspending solution 97 % of control | dose: 400.0 mg/kg/injection, schedule: Q01DX001 (ip), vehicle: steriod suspending solution 105 % of control

O=C1c2ccccc2-c2ccc(Cl)cc21
inactive: [9] 96 % of control | [10] 96 % of control | [11] 96 % of control

CCOP(=O)(OCC)C(C)C#N (configuration not stated)
inactive: dose: 15.0 mg/kg/injection, schedule: Q01DX001 (ip), vehicle: saline 95 % of control | dose: 30.0 mg/kg/injection, schedule: Q01DX001 (ip), vehicle: saline 100 % of control

CC(=O)n1c2ccccc2c2ccccc21
inactive: dose: 100.0 mg/kg/injection, schedule: Q04DX002 (ip), vehicle: gum acacia 95 % of control | dose: 200.0 mg/kg/injection, schedule: Q04DX002 (ip), vehicle: gum acacia 88 % of control | dose: 400.0 mg/kg/injection, schedule: Q04DX002 (ip), vehicle: gum acacia 100 % of control

CCCC(=O)CC(=O)C(F)(F)F.CCCC(=O)CC(=O)C(F)(F)F.CCCC(=O)CC(=O)C(F)(F)F.[Er]
inactive: dose: 100.0 mg/kg/injection, schedule: Q01DX009 (ip), vehicle: other 104 % of control | dose: 100.0 mg/kg/injection, schedule: Q04DX003 (ip), vehicle: other 110 % of control | dose: 200.0 mg/kg/injection, schedule: Q01DX009 (ip), vehicle: other 106 % of control | dose: 200.0 mg/kg/injection, schedule: Q04DX003 (ip), vehicle: other 107 % of control | dose: 400.0 mg/kg/injection, schedule: Q04DX003 (ip), vehicle: other 108 % of control

Cc1c(C(N)=O)sc2ccccc12
inactive: [9] 89 % of control | [10] 107 % of control | [11] 94 % of control

CNCCCN(C)CCCNC
inactive: [5] 100 % of control | [7] 96 % of control | [6] 101 % of control | dose: 50.0 mg/kg/injection, schedule: Q04DX003 (ip), vehicle: saline 104 % of control | dose: 100.0 mg/kg/injection, schedule: Q01DX009 (ip), vehicle: saline 94 % of control | dose: 100.0 mg/kg/injection, schedule: Q04DX003 (ip), vehicle: saline 99 % of control and 102 % of control

COC(=O)CCCCCCCCC(C)c1ccc(C(C)=O)cc1 (configuration not stated)
inactive: [8] 95 % of control | [12] 99 % of control | [13] 87 % of control | [14] 95 % of control | [15] 96 % of control | [16] 89 % of control
